Data as given in ChEMBL document CHEMBL6127128, “Discovery of the First-in-Class Dual-Target ROCK/HDAC Inhibitor with Potent Antitumor Efficacy in Vivo That Trigger Antitumor Immunity” (J Med Chem, 2024).
Calls of active or inactive are those of the source. No cut-off for these calls is given here.

What was measured:
[1] = target: Rho-associated protein kinase 2 (Homo sapiens, UniProt O75116); assay: Inhibition of N-terminal GST-tagged human recombinant wild type ROCK2 (1 to 553 residues) expressed in baculovirus-infected Sf21 cells by HTRF KinEASE assay
Rho-associated protein kinase 2, sequence (O75116 whole entry, the tested form may be a part): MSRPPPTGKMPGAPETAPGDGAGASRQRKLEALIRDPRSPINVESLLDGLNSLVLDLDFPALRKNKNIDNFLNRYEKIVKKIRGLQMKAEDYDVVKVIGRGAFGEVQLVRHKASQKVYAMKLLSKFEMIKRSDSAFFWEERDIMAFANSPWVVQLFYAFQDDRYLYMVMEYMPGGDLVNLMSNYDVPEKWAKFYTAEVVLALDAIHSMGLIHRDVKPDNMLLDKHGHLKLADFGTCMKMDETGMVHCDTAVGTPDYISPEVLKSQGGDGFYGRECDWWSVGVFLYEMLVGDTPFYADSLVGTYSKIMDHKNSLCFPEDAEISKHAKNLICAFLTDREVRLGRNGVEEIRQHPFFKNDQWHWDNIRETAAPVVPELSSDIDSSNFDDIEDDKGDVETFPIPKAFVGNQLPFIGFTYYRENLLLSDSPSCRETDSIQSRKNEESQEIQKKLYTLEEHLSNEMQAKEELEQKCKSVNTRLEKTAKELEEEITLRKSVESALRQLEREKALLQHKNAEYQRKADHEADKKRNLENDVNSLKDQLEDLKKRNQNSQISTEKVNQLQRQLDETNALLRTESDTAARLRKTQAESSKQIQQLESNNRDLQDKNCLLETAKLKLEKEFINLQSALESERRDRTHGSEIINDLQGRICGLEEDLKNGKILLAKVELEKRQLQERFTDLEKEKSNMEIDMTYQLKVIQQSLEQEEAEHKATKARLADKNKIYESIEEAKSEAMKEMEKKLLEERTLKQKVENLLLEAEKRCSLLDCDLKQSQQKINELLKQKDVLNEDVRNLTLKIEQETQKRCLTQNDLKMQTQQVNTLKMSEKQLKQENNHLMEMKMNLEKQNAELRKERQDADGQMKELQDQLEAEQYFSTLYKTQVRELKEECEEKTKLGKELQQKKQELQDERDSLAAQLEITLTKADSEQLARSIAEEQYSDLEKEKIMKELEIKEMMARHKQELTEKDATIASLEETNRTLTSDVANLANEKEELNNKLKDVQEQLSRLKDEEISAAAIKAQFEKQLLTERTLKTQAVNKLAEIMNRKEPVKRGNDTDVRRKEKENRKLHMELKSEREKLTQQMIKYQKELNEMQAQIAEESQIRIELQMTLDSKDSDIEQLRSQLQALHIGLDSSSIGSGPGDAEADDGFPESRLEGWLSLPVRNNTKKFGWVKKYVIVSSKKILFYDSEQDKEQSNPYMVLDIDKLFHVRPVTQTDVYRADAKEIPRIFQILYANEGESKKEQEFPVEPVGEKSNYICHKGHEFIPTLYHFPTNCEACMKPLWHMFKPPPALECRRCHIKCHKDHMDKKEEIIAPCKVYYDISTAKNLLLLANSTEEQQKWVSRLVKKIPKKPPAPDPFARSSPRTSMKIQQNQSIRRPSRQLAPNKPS

MDA-MB-231 = assay: Cytotoxicity against human MDA-MB-231 cells assessed as reduction in cell viability incubated for 72 hrs by SRB assay; assay type: functional, cell-based; conditions: MDA-MB-231, 72 h
4T1 [2] = assay: Antitumor immunity against mouse 4T1 cells implanted in Balb/c mouse assessed as increase in CD4+ T cells in tumor tissue at 50 mg/kg, po administered daily for 15 days by flow cytometry; assay type: functional, organism-based; conditions: time 15.0 day
4T1 [3] = assay: Antitumor immunity against mouse 4T1 cells implanted in Balb/c mouse assessed as increase in CD8+ T cells in tumor tissue at 50 mg/kg, po administered daily for 15 days by flow cytometry; assay type: functional, organism-based; conditions: time 15.0 day
4T1 [4] = assay: Antitumor immunity against mouse 4T1 cells implanted in Balb/c mouse assessed as increase in CD3+ T cells in tumor tissue at 50 mg/kg, po administered daily for 15 days by flow cytometry; assay type: functional, organism-based; conditions: time 15.0 day
[5] = target: Rho-associated protein kinase 1 (Homo sapiens, UniProt Q13464); assay: Inhibition of N-terminal GST-tagged human recombinant ROCK1 (17 to 535 residues) expressed in baculovirus-infected Sf9 cells by HTRF KinEASE assay
4T1 [6] = assay: Cytotoxicity against mouse 4T1 cells assessed as reduction in cell viability; assay type: functional, cell-based

IC50 [1] [µM] | SMILES | IC50 (MDA-MB-231) [µM] | also measured
< 0.001 | COc1cccc(CN(CCN(C)C)C(=O)c2nc3ccc(-c4cn[nH]c4)cc3s2)c1 |  | 
 | O=C(CCCCCCCNC(=O)c1cc2cccc(-c3cn[nH]c3)c2s1)NO | > 10 | 
> 1 | COc1cccc(CNC(=O)c2cc3c(-c4ccncc4)cccc3s2)c1 |  | 
 | O=C(CCCCCCCNC(=O)c1cc2ccc(-c3cn[nH]c3)cc2s1)NO | 0.76 | 
 | O=C(CCCCCCNC(=O)c1cc2ccc(-c3ccncc3)cc2s1)NO | 0.95 | 
 | O=C(CCCCCCC(=O)Nc1ccccc1)NO [VORINOSTAT] | 0.66 | Activity (4T1 [2]): Active; Activity (4T1 [3]): Active; Activity (4T1 [4]): Active
> 1 | COc1cccc(CNC(=O)c2cc3ccc(-c4ccc5[nH]ncc5c4)cc3s2)c1 |  | 
> 1 | COc1cccc(CNC(=O)c2cc3c(-c4cn[nH]c4)cccc3s2)c1 |  | 
8.89 | CN[C@@H]1C[C@H](c2ccc3c(c2O)C(=O)c2c(C)sc(C(C)=O)c2C3=O)O[C@H](C)[C@H]1O |  | 
 | O=C(CCCCCCCNC(=O)c1cc2c(-c3cn[nH]c3)cccc2s1)NO | > 10 | 
0.00675 | COc1cccc(CNC(=O)c2cc3cc(-c4cn[nH]c4)ccc3s2)c1 |  | inhibition (active/inactive call) [5]: Active
> 1 | COc1cccc(CNC(=O)c2cc3cccc(-c4ccc5[nH]ncc5c4)c3s2)c1 |  | 
 | O=C(CCCCCNC(=O)c1cc2cc(-c3cn[nH]c3)ccc2s1)NO | > 10 | 
> 1 | O=C(CCCCCCCNC(=O)c1cc2cc(-c3ccncc3)ccc2s1)NO | 0.42 | IC50 [5]: > 1 µM
 | O=C(CCCCCCNC(=O)c1cc2c(-c3ccncc3)cccc2s1)NO | 2.9 | 
 | O=C(CCCCCNC(=O)c1cc2cc(-c3ccncc3)ccc2s1)NO | > 10 | 
 | O=C(CCCCCNC(=O)c1cc2c(-c3cn[nH]c3)cccc2s1)NO | 3.21 | 
 | O=C(CCCCCCNC(=O)c1cc2cccc(-c3cn[nH]c3)c2s1)NO | 9.05 | 
> 1 | COc1cccc(CNC(=O)c2cc3cccc(-c4ccncc4)c3s2)c1 |  | 
 | O=C(CCCCCCNC(=O)c1cc2cccc(-c3ccncc3)c2s1)NO | 1.54 | 
0.00794 | COc1cccc(CNC(=O)c2cc3ccc(-c4cn[nH]c4)cc3s2)c1 |  | inhibition (active/inactive call) [5]: Active
 | O=C(CCCCCNC(=O)c1cc2cccc(-c3cn[nH]c3)c2s1)NO | > 10 | 

IC50 [1] [µM] | SMILES | IC50 (MDA-MB-231) [µM] | also measured
 | O=C(CCCCCCNC(=O)c1cc2ccc(-c3cn[nH]c3)cc2s1)NO | 1.26 | 
> 1 | COc1cccc(CNC(=O)c2cc3c(-c4cccc5cnccc45)cccc3s2)c1 |  | 
 | O=C(CCCCCCCNC(=O)c1cc2cccc(-c3ccncc3)c2s1)NO | > 10 | 
0.225 | COc1cccc(CNC(=O)c2cc3cccc(-c4cn[nH]c4)c3s2)c1 |  | inhibition (active/inactive call) [5]: Active
> 1 | COc1cccc(CNC(=O)c2cc3cc(-c4ccc5[nH]ncc5c4)ccc3s2)c1 |  | 
 | C[C@@H](N)[C@H]1CC[C@H](C(=O)Nc2ccncc2)CC1 [Y-27632] | > 10 | IC50 (4T1 [6]): > 10 µM
> 1 | COc1cccc(CNC(=O)c2cc3cc(-c4ccncc4)ccc3s2)c1 |  | 
 | O=C(CCCCCCCNC(=O)c1cc2c(-c3ccncc3)cccc2s1)NO | > 10 | 
> 1 | COc1cccc(CNC(=O)c2cc3cccc(-c4cccc5cnccc45)c3s2)c1 |  | 
 | O=C(CCCCCCCNC(=O)c1cc2cc(-c3cn[nH]c3)ccc2s1)NO | 6.42 | 
> 1 | O=C(CCCCCCCNC(=O)c1cc2ccc(-c3ccncc3)cc2s1)NO | 0.46 | IC50 [5]: > 1 µM
> 1 | O=C(CCCCCCNC(=O)c1cc2cc(-c3ccncc3)ccc2s1)NO | 0.13 | IC50 [5]: > 1 µM
> 1 | COc1cccc(CNC(=O)c2cc3c(-c4ccc5[nH]ncc5c4)cccc3s2)c1 |  | 
 | O=C(CCCCCNC(=O)c1cc2ccc(-c3cn[nH]c3)cc2s1)NO | > 10 | 
 | O=C(CCCCCNC(=O)c1cc2ccc(-c3ccncc3)cc2s1)NO | > 10 | 
 | O=C(CCCCCNC(=O)c1cc2cccc(-c3ccncc3)c2s1)NO | > 10 | 
> 1 | COc1cccc(CNC(=O)c2cc3ccc(-c4cccc5cnccc45)cc3s2)c1 |  | 
0.296 | COc1cccc(CNC(=O)c2cc3ccc(-c4ccncc4)cc3s2)c1 |  | inhibition (active/inactive call) [5]: Active
 | O=C(CCCCCCNC(=O)c1cc2c(-c3cn[nH]c3)cccc2s1)NO | > 10 | 
> 1 | COc1cccc(CNC(=O)c2cc3cc(-c4cccc5cnccc45)ccc3s2)c1 |  | 
 | O=C(CCCCCNC(=O)c1cc2c(-c3ccncc3)cccc2s1)NO | > 10 | 
